Laboratory results reported in publication PMC9412861, “Understanding the pH Dependence of Supersaturation State—A Case Study of Telmisartan” (Pharmaceutics, 2022).

How the values were obtained:
[1] = Kinetic solubility measurement (µDISS profiler); type: physicochemical
Protocol: The kinetic solubility measurements of TEL were determined using µDISS™ profiler (Pion Inc., Billerica, MA, USA). The method was described earlier by Kadar et al..

[2] = ESI mass spectrometry of saturated solutions (aggregation); type: physicochemical; conditions: buffer-free saturated solution
Protocol: An ESI- triple quadrupole-MS/MS instrument (4000 Q TRAP) from Applied Biosystems (Foster City, CA, USA) was used for the MS and MS/MS measurements. Compounds were analyzed in the positive mode, and the settings were ion spray voltage 4500 V, ion source gas (N2) 16 arbitrary units (a.u.), curtain gas (N2) 10 a.u., declustering potential 20 V, and entrance potential 10 V. For MS/MS experiments, the settings were collision gas (N2) medium, and collision energy 51 V. Saturated samples were infused at a rate of 6 μL/min using Harvard Apparatus Syringe pump (Holliston, MA, USA). Analyst 1.4.2. software from Applied Biosystems (Foster City, CA, USA) was used for data acquisition and processing.

CCCc1nc2c(C)cc(-c3nc4ccccc4n3C)cc2n1Cc1ccc(-c2ccccc2C(=O)O)cc1 [Telmisartan, telmisartan]
pH range of minimal kinetic solubility ([1]; Prisma HT buffer, 37 °C): 3–6
pH range in which a supersaturated solution is formed ([1]; based on kinetic solubility results): 3–8
difference between thermodynamic and kinetic solubility ([1]; more acidic pHs (below pH 3)): no significant difference
difference between thermodynamic and kinetic solubility ([1]; pH = 3 to pH = 8): near two-magnitude difference
dimerization in solution by MS ([2]; higher pHs (e.g., pH 10)): no dimerization could be observed
dimerization in solution by MS ([2]; pH range 3–8): peak corresponding to the dimeric structure could be detected
